The text below walks through data of the METLIN SMRT retention time set (Domingo-Almenara et al. 2019).

The nature of this series: gradient 5% acetonitrile 3 min, to 50% in 2 min, to 85% in 15 min, held 3 min, 100 µL/min. To be noted: column: Zorbax Extend-C18 2.1 x 50 mm; eluents: water / acetonitrile, 0.1% formic acid. In short, it runs like this:
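Over 3 months, pure standards in mixtures of ~100 molecules were run by HPLC coupled to a quadrupole time-of-flight mass spectrometer in positive and negative ionization mode. The column was a Zorbax Extend-C18 (2.1 × 50 mm, 1.8 μm) at 100 μL/min, eluted with water and acetonitrile each holding 0.1% formic acid, with 40 μL dead and 900 μL dwell volumes. Retention time was determined from adduct peaks chosen by software and checked manually.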
Molecule `CCCn1cc(CCNC(=O)c2c(F)cccc2Cl)c2cccnc21` came in with an RP-LC retention time of 764 s. In turn, `O=C(Nc1ccc(N2CCN(Cc3ccc(F)cc3)C2=O)nc1)C1CCC1` had an RP-LC retention time of 750 s. The figure for `Cc1ccc(-c2nc3ccccn3c2Nc2ccc(F)cc2)cc1` is 717 s; for `O=C(Cn1cnc2nc(N3CCCC(C(=O)NC4CC4)C3)sc2c1=O)Nc1cccc(Cl)c1` (stereo not drawn) it is 665 s. The value for `N#Cc1cccc(C(=O)N2CCN3CCS(=O)(=O)N(C4CC4)C(=O)C3C2)c1` (stereo not drawn) was 714 s; that for `O=C1C2N=NN(Cc3nc(-c4ccccc4Cl)no3)C2C(=O)N1c1ccc2c(c1)OCO2` (stereo not drawn) was 1020 s; that for `Cc1noc(C2(NC(=O)c3sccc3C)CCCCC2)n1` was 882 s. The value for `COc1ccc(N2CCN(c3ncccc3-c3nc(-c4ccccc4)no3)CC2)cc1` was 1290 s; that for `COc1ccccc1-n1ccn(Cc2nc(-c3ccc(Cl)cc3)no2)c(=O)c1=O` was 874 s. The molecule `COC(=O)c1sc2ccc(NC(=O)C3CCN(S(=O)(=O)N4CCOCC4)CC3)cc2c1OC` came in with an RP-LC retention time of 853 s. The figure for `Cc1cnc(C2CN(C(=O)C3(c4ccccc4)CC3)C2)n1Cc1cccnc1` is 585 s; for `O=C(NCc1ccccn1)C1CC(=O)N(CCc2c[nH]c3ccc(Cl)cc23)C1` (stereo not drawn) it is 627 s.

Molecule `CCOC(=O)c1c2c3c(cccc3n(C)c1=O)C(=O)c1ccccc1-2` returned an RP-LC retention time of 907 s. As to `COc1ccc(Cn2nnc(C(=O)N3CCSCC3)c2-n2cccc2)cc1`, the RP-LC retention time came out at 884 s. Regarding `CC1CS(=O)(=O)N(c2ccc(C(=O)N3CCN(c4ccccn4)CC3)c(Cl)c2)C1=O` (stereo not drawn), the RP-LC retention time was determined as 576 s. In turn, `O=C(Cn1cnc2ccccc2c1=O)NC1CCCC1` registered an RP-LC retention time of 672 s. The figure for `O=c1ccc(-c2cccc(Br)c2)nn1Cc1ccncc1` is 595 s; for `CCn1nc(C)c(S(=O)(=O)N2CCN(C(=O)C(C)Oc3ccccc3)CC2)c1C` (stereo not drawn) it is 780 s; for `Cc1nc(-c2cc3ccccc3nc2N2CCN(c3ccc(F)cc3)CC2)no1` it is 1110 s.

`O=C(CN1C(=O)COc2ccc(C(=O)N3CCCC3)cc21)NCCCc1ccccc1` yielded an RP-LC retention time of 747 s. Take `COc1cc(=O)n2c(c1C(=O)Nc1ccc(Cl)c(Cl)c1)CCCC2`: the RP-LC retention time is 823 s. The figure for `Cc1cc(=O)n(CC(=O)Nc2ccccc2Cl)c(N2CCCC2)n1` is 661 s; for `Cn1nccc1-c1cccc(-c2noc(-c3cccnc3)n2)c1` it is 876 s. Take `O=C(CCc1ccccc1)N1CCCC1c1nc(-c2ccccc2Cl)no1` (stereo not drawn): the RP-LC retention time is 1040 s. The figure for `Cc1ccc(-n2cc3c(N4CCCC(C(=O)NC(C)c5ccc(F)cc5)C4)ncnc3n2)cc1` (stereo not drawn) is 741 s. The figure for `O=C(Cn1nc2c(Oc3cccc(F)c3)nccn2c1=O)Nc1cc(F)ccc1F` is 885 s. The value for `Cc1ccc(-c2noc(Cc3nc(-c4ccc(F)cc4)cs3)n2)cc1` was 1310 s; that for `Cc1nn(-c2ccc(F)cc2)c2c1c(=O)c(C(=O)NCc1cccs1)cn2C` was 808 s.

`CCN1C(=O)c2cccnc2Sc2cc(CNC(=O)c3cc(OC)cc(OC)c3)ccc21` came in with an RP-LC retention time of 777 s. The figure for `CSc1ccc(-c2nc3cc(C)ccn3c2Nc2ccc3c(c2)OCO3)cc1` is 748 s.

For `O=c1c2scc(-c3cccc(F)c3)c2ncn1Cc1ccc(Br)cc1`, the RP-LC retention time worked out at 1170 s.

Molecule `Cc1cc(C)cc(NC(=O)Cn2c(N3CCOCC3)nc(C)cc2=O)c1` came in with an RP-LC retention time of 711 s.

Molecule `Cc1cccc(NC(=O)C2CCN(S(C)(=O)=O)c3ccccc3O2)c1C` (stereo not drawn) came in with an RP-LC retention time of 844 s. The value for `CCOc1ccccc1NC(=O)N1CCC(n2cnc3cc(Cl)ccc3c2=O)CC1` was 935 s; that for `COc1cc(CNC(=O)C23CCC=C2N(C2CCCC2)C(=O)CC3)cc(OC)c1` (stereo not drawn) was 752 s. Molecule `Cc1cccc(OCc2ccc(-c3nc(C#N)c(NCCCN(C)C)o3)o2)c1` showed an RP-LC retention time of 728 s. With `O=c1n(Cc2cccc(Br)c2)nc2c(S(=O)(=O)N3CCOCC3)cccn12`, the RP-LC retention time was determined as 811 s.

Regarding `CNC(=O)C1CCN(C(=O)Nc2ccc(NC(=O)Nc3ccc(C)cc3)cc2)CC1`, the RP-LC retention time is 658 s. The figure for `Cc1cc(S(=O)(=O)N2CCN(C3CCN(Cc4ccccn4)C3=O)CC2)ccc1Cl` (stereo not drawn) is 622 s; for `CC1CCc2c(C(=O)NCCc3ccccc3)csc2C1` (stereo not drawn) it is 1080 s.

For `Cc1cccc(N2C(=O)CN(S(=O)(=O)c3ccccc3)CC2(C)C(=O)NC2CCCC2)c1C` (stereo not drawn), the RP-LC retention time came out at 968 s.

`CCNC(=O)c1c2c(nc3ccccc13)CCC2` returned an RP-LC retention time of 573 s. Turning to `CCOC(=O)N1CCc2c(sc(NC(=O)C3CC3)c2-c2nc3ccccc3s2)C1`, the RP-LC retention time turned out to be 905 s. The value for `CN(C(=O)CN1C(=O)NC2(CCC(C(C)(C)C)CC2)C1=O)c1ccccc1` (stereo not drawn) was 979 s; that for `CC(C)Cn1c(=O)c(C(=O)NCCN2CCCCC2)nc2cccnc21` was 552 s. The figure for `CCC(=O)NCc1nc2c(n1C)CN(S(=O)(=O)c1ccc(F)c(C)c1)CC2` is 575 s; for `O=S(=O)(c1ccc(Cl)s1)N1CCc2nc(-c3ccc(Cl)cc3)ncc2C1` it is 1310 s. In turn, `Cc1cccn2cc(-c3ccc(NS(=O)(=O)c4ccc(Br)cc4)cc3)nc12` gave an RP-LC retention time of 674 s.

For the molecule `Cc1cc(C(=O)N2CCOCC2)nn1CC(=O)Nc1nc2ccccc2s1`, the RP-LC retention time was determined as 683 s. The figure for `Cc1ccc(Oc2cccc(NC(=O)Cc3noc4ccccc34)c2)nn1` is 699 s; for `CC(C)c1cc(C(=O)Nc2ccc(F)c(Cl)c2)nn1C1CCS(=O)(=O)C1` (stereo not drawn) it is 997 s; for `O=C(c1cc2ccc3cccnc3c2[nH]1)N1CCN(c2ccccn2)CC1` it is 596 s. The value for `Cn1cc(CCN2CCN(S(=O)(=O)c3ccc(C#N)cc3)CC2)c2cccnc21` was 616 s; that for `O=C(NCc1ccsc1)C(=O)Nc1cccnc1` was 566 s; that for `CC(C)CCNC(=O)[C@H](CC(C)C)NC(=O)[C@H]1O[C@@H]1C(=O)O` was 841 s. The value for `Cc1nnc2ccc(S(=O)(=O)N(Cc3ccccc3)c3cc(F)cc(F)c3)cn12` was 899 s; that for `CC1(C(=O)NCc2ccc3c(c2)OCO3)CCN(C(=O)Nc2ccccc2C(F)(F)F)CC1` was 812 s. For the molecule `COc1ccccc1C(=O)N1CCC(c2cc3n(n2)CCCNC3=O)CC1`, the RP-LC retention time was 596 s. In the case of `CCOc1ccc(N(C)S(=O)(=O)c2ccsc2C(=O)NCc2cccc(OCC)c2)cc1`, the RP-LC retention time worked out at 1160 s.

As to `COc1ccc(-c2nc3cnccn3c2Nc2ccc(C(=O)N3CCOCC3)cc2)cc1OC`, the RP-LC retention time was found to be 609 s. The value for `CCCNc1cc(N2CCC(CCC(=O)NCc3ccccc3F)CC2)ncn1` was 680 s. The figure for `O=C(NCc1ccc(F)cc1F)C1CCN(C(=O)c2ncn3c2COC(c2ccc(F)cc2)C3)CC1` (stereo not drawn) is 776 s; for `CCCN1C(=O)C2(c3cc(Br)ccc31)c1[nH]c3ccccc3c1CCN2C(C)=O` (stereo not drawn) it is 924 s. As to `Cc1cccc(C)c1NC(=O)C1CCCN(c2nnc(C)c3c(C)n(-c4ccccc4)nc23)C1` (stereo not drawn), the RP-LC retention time came to 776 s. The figure for `O=C1[C@H]2CN(Cc3ccc(Cl)cc3)C[C@H]2C(=O)N1CCN1CCc2ccccc2C1` is 740 s. Consider `O=c1ccc(-c2ccc(F)cc2)nn1CCc1nc(-c2ccc(Br)cc2)no1`, for which the RP-LC retention time worked out at 1110 s. The figure for `CCCNC(=O)N1CCN(c2nc3ccccc3n(Cc3ccc(C)cc3)c2=O)CC1` is 978 s. The figure for `OC1(c2ccccn2)CCOC2(CCN(Cc3cccc(F)c3)CC2)C1` (stereo not drawn) is 554 s; for `Cc1cccc(C(=O)Nc2cc(-c3ccsc3)no2)c1` it is 992 s; for `COCCN1C(=O)CC[C@]2(C(=O)N(C)CCc3ccccn3)CCCC[C@@H]12` it is 546 s. The figure for `COC(=O)C1=CN(c2cccc(Br)c2)c2ccc(F)cc2S1(=O)=O` is 913 s; for `Cc1cc(C)c(C(=O)N2CCCC(C(=O)NCc3cccc(Br)c3)C2)[nH]1` (stereo not drawn) it is 855 s; for `CC(CCc1ccccc1)NC(=O)C1CCN(S(=O)(=O)c2ccc3c(c2)CCCC(=O)N3)CC1` (stereo not drawn) it is 809 s.

On to `O=S(=O)(NCC(c1cccnc1)N1CCN(c2ccc(F)cc2)CC1)c1cccs1` (stereo not drawn), for which the RP-LC retention time is 618 s.

`Cc1ccc2c(c1)OCC(=O)N2Cc1nc(-c2ccc(C(C)(C)C)cc2)no1`: the RP-LC retention time was determined as 1290 s. The figure for `COCCCn1c(=O)c2ccccc2n(Cc2nc(-c3cccc(OC)c3)no2)c1=O` is 1040 s; for `Cc1n[nH]c(C)c1S(=O)(=O)N1CCN(c2ccc3nnc(C4CC4)n3n2)CC1` it is 604 s. The value for `CN(Cc1ccco1)C(=O)CC1CCN(C(=O)c2cc3ccccc3[nH]2)CC1` was 826 s.
